Several values for one entry are separate records, joined by “and”; a condition that tells them apart may be missing. Equal entries are not always repeated. Inconclusive results and toxic doses are left out.
System: AKR/Lw mice, AKR lymphoma ip, median survival T/C
Test: NCI In Vivo Anticancer Drug Screen. Data for tumor model Lymphoma AKR (Transplanted) (intraperitoneal) in AKR/Lw mice
Conditions: endpoint: median survival time, higher = longer survival
Method: The antitumor activity of compounds was measured in mice bearing transplantable tumors. Survival or tumor size were measured and the results are expressed as the measurement made in the treated group (T) divided by the measurement made in the vehicle treated control group (C). The tumor model used in this assay is Lymphoma AKR (Transplanted) (intraperitoneal) in AKR/Lw mice

[1] = dose: 100.0 mg/kg/injection, schedule: Q01DX001 (ip), vehicle: Klucel (hydroxypropylcellulose) (HPC)
[2] = dose: 200.0 mg/kg/injection, schedule: Q01DX001 (ip), vehicle: Klucel (hydroxypropylcellulose) (HPC)
[3] = dose: 400.0 mg/kg/injection, schedule: Q01DX001 (ip), vehicle: Klucel (hydroxypropylcellulose) (HPC)

For `CC[C@]1(O)C[C@H]2CN(CCc3c([nH]c4ccccc34)[C@@](C(=O)OC)(c3cc4c(cc3OC)N(C=O)[C@H]3[C@@](O)(C(=O)OC)[C@H](OC(C)=O)[C@]5(CC)C=CCN6CC[C@]43[C@@H]65)C2)C1`, the T/C (dose: 0.01 mg/kg/injection, schedule: Q10DX002 (ip), vehicle: saline) was 113 % of control, the T/C (dose: 0.02 mg/kg/injection, schedule: Q01DX001 (ip), vehicle: saline) was 110 % of control and the T/C (dose: 0.02 mg/kg/injection, schedule: Q04DX003 (ip), vehicle: saline) was 86 % of control. For the same compound, the T/C (dose: 0.02 mg/kg/injection, schedule: Q10DX002 (ip), vehicle: saline) was 119 % of control, the T/C (dose: 0.03 mg/kg/injection, schedule: Q04DX003 (ip), vehicle: saline) was 93 % of control and 107 % of control and 114 % of control and the T/C (dose: 0.03 mg/kg/injection, schedule: Q10DX002 (ip), vehicle: saline) was 119 % of control. For the same compound, the T/C (dose: 0.05 mg/kg/injection, schedule: Q01DX001 (ip), vehicle: saline) was 101 % of control, the T/C (dose: 0.05 mg/kg/injection, schedule: Q04DX003 (ip), vehicle: saline) was 94 % of control and the T/C (dose: 0.06 mg/kg/injection, schedule: Q04DX002 (ip), vehicle: saline) was 110 % of control. For the same compound, the T/C (dose: 0.06 mg/kg/injection, schedule: Q04DX003 (ip), vehicle: saline) was 111 % of control and 116 % of control, the T/C (dose: 0.1 mg/kg/injection, schedule: Q01DX001 (ip), vehicle: saline) was 103 % of control and the T/C (dose: 0.1 mg/kg/injection, schedule: Q04DX003 (ip), vehicle: saline) was 94 % of control. For the same compound, the T/C (dose: 0.12 mg/kg/injection, schedule: Q01DX001 (ip), vehicle: saline) was 100 % of control and 111 % of control and 119 % of control, the T/C (dose: 0.12 mg/kg/injection, schedule: Q01DX009 (ip), vehicle: saline) was 109 % of control and the T/C (dose: 0.13 mg/kg/injection, schedule: Q04DX002 (ip), vehicle: water) was 90 % of control and 95 % of control. The T/C (dose: 0.2 mg/kg/injection, schedule: Q04DX003 (ip), vehicle: saline) was 94 % of control, the T/C (dose: 0.25 mg/kg/injection, schedule: Q01DX009 (ip), vehicle: saline) was 109 % of control and the T/C (dose: 0.4 mg/kg/injection, schedule: Q04DX003 (ip), vehicle: saline) was 118 % of control. For the same compound, the T/C (dose: 0.5 mg/kg/injection, schedule: Q04DX002 (ip), vehicle: saline) was 223 % of control, the T/C (dose: 0.5 mg/kg/injection, schedule: Q04DX002 (ip), vehicle: water) was 107 % of control and 109 % of control and the T/C (dose: 0.75 mg/kg/injection, schedule: Q01DX001 (ip), vehicle: saline) was 157 % of control. For the same compound, the T/C (dose: 1.0 mg/kg/injection, schedule: Q04DX003 (ip), vehicle: saline) was 359 % of control, the T/C (dose: 1.0 mg/kg/injection, schedule: Q10DX002 (ip), vehicle: saline) was 33 % of control and the T/C (dose: 1.5 mg/kg/injection, schedule: Q10DX002 (ip), vehicle: saline) was 68 % of control. For the same compound, the T/C (dose: 0.2 micrograms/kg/injection, schedule: Q01DX009 (ip), vehicle: saline) was 103 % of control, the T/C (dose: 0.5 micrograms/kg/injection, schedule: Q01DX009 (ip), vehicle: saline) was 100 % of control and the T/C (dose: 0.6 micrograms/kg/injection, schedule: Q01DX009 (ip), vehicle: saline) was 96 % of control. The T/C (dose: 1.0 micrograms/kg/injection, schedule: Q01DX009 (ip), vehicle: saline) was 86 % of control and 100 % of control, the T/C (dose: 1.2 micrograms/kg/injection, schedule: Q01DX009 (ip), vehicle: saline) was 87 % of control and the T/C (dose: 2.0 micrograms/kg/injection, schedule: Q01DX009 (ip), vehicle: saline) was 94 % of control. The T/C (dose: 6.0 micrograms/kg/injection, schedule: Q01DX009 (ip), vehicle: saline) was 102 % of control and 114 % of control, the T/C (dose: 15.0 micrograms/kg/injection, schedule: Q01DX009 (ip), vehicle: saline) was 122 % of control and the T/C (dose: 20.0 micrograms/kg/injection, schedule: Q01DX009 (ip), vehicle: saline) was 97 % of control. The T/C (dose: 25.0 micrograms/kg/injection, schedule: Q01DX009 (ip), vehicle: saline) was 97 % of control, the T/C (dose: 30.0 micrograms/kg/injection, schedule: Q01DX009 (ip), vehicle: saline) was 112 % of control and the T/C (dose: 50.0 micrograms/kg/injection, schedule: Q01DX009 (ip), vehicle: saline) was 102 % of control. The T/C (dose: 60.0 micrograms/kg/injection, schedule: Q01DX009 (ip), vehicle: saline) was 120 % of control and the T/C (dose: 100.0 micrograms/kg/injection, schedule: Q01DX009 (ip), vehicle: saline) was 114 % of control.
`COc1ccc(-n2c(=S)[nH]c3ccccc3c2=O)cc1` was tested, and the T/C (dose: 75.0 mg/kg/injection, schedule: Q04DX003 (ip), vehicle: Klucel (hydroxypropylcellulose) (HPC)) was 88 % of control, the T/C [1] was 106 % of control and the T/C (dose: 150.0 mg/kg/injection, schedule: Q04DX003 (ip), vehicle: Klucel (hydroxypropylcellulose) (HPC)) was 86 % of control. For the same compound, the T/C [2] was 87 % of control and the T/C [3] was 90 % of control.
In the case of `CC(=O)c1cccc(N)c1`, the T/C [1] was 93 % of control and 105 % of control, the T/C [2] was 91 % of control and the T/C [3] was 94 % of control and 122 % of control. The T/C (dose: 600.0 mg/kg/injection, schedule: Q01DX001 (ip), vehicle: Klucel (hydroxypropylcellulose) (HPC)) was 94 % of control.
In the case of `O=C(O)CCCc1ccc(N(CCCl)CCCl)cc1`, the T/C (dose: 0.12 mg/kg/injection, schedule: Q01DX009 (ip), vehicle: Klucel (hydroxypropylcellulose) (HPC)) was 97 % of control, the T/C (dose: 0.25 mg/kg/injection, schedule: Q01DX009 (ip), vehicle: Klucel (hydroxypropylcellulose) (HPC)) was 94 % of control and 96 % of control and the T/C (dose: 0.5 mg/kg/injection, schedule: Q01DX009 (ip), vehicle: Klucel (hydroxypropylcellulose) (HPC)) was 100 % of control. For the same compound, the T/C (dose: 1.0 mg/kg/injection, schedule: Q01DX009 (ip), vehicle: Klucel (hydroxypropylcellulose) (HPC)) was 96 % of control and 102 % of control, the T/C (dose: 1.2 mg/kg/injection, schedule: Q01DX009 (ip), vehicle: Klucel (hydroxypropylcellulose) (HPC)) was 100 % of control and the T/C (dose: 1.2 mg/kg/injection, schedule: Q04DX003 (ip), vehicle: Klucel (hydroxypropylcellulose) (HPC)) was 94 % of control. For the same compound, the T/C (dose: 1.25 mg/kg/injection, schedule: Q04DX003 (ip), vehicle: saline) was 103 % of control, the T/C (dose: 2.0 mg/kg/injection, schedule: Q01DX009 (ip), vehicle: Klucel (hydroxypropylcellulose) (HPC)) was 100 % of control and the T/C (dose: 2.5 mg/kg/injection, schedule: Q01DX009 (ip), vehicle: Klucel (hydroxypropylcellulose) (HPC)) was 93 % of control and 107 % of control. For the same compound, the T/C (dose: 2.5 mg/kg/injection, schedule: Q04DX003 (ip), vehicle: Klucel (hydroxypropylcellulose) (HPC)) was 100 % of control, the T/C (dose: 2.5 mg/kg/injection, schedule: Q04DX003 (ip), vehicle: saline) was 86 % of control and 118 % of control and the T/C (dose: 3.75 mg/kg/injection, schedule: Q01DX009 (ip), vehicle: saline) was 119 % of control. The T/C (dose: 4.0 mg/kg/injection, schedule: Q01DX009 (ip), vehicle: Klucel (hydroxypropylcellulose) (HPC)) was 118 % of control, the T/C (dose: 5.0 mg/kg/injection, schedule: Q01DX009 (ip), vehicle: Klucel (hydroxypropylcellulose) (HPC)) was 86 % of control and 110 % of control and the T/C (dose: 5.0 mg/kg/injection, schedule: Q04DX003 (ip), vehicle: Klucel (hydroxypropylcellulose) (HPC)) was 100 % of control and 105 % of control and 117 % of control. The T/C (dose: 5.0 mg/kg/injection, schedule: Q04DX003 (ip), vehicle: saline) was 93 % of control and 97 % of control, the T/C (dose: 6.2 mg/kg/injection, schedule: Q01DX001 (ip), vehicle: Klucel (hydroxypropylcellulose) (HPC)) was 95 % of control and 120 % of control and the T/C (dose: 6.25 mg/kg/injection, schedule: Q01DX009 (ip), vehicle: saline) was 97 % of control. For the same compound, the T/C (dose: 7.5 mg/kg/injection, schedule: Q01DX009 (ip), vehicle: Klucel (hydroxypropylcellulose) (HPC)) was 106 % of control, the T/C (dose: 7.5 mg/kg/injection, schedule: Q01DX009 (ip), vehicle: saline) was 122 % of control and the T/C (dose: 12.5 mg/kg/injection, schedule: Q01DX001 (ip), vehicle: Klucel (hydroxypropylcellulose) (HPC)) was 109 % of control and 118 % of control. The T/C (dose: 12.5 mg/kg/injection, schedule: Q01DX001 (ip), vehicle: saline) was 109 % of control and 111 % of control, the T/C (dose: 15.0 mg/kg/injection, schedule: Q01DX009 (ip), vehicle: saline) was 122 % of control and the T/C (dose: 20.0 mg/kg/injection, schedule: Q04DX003 (ip), vehicle: saline) was 94 % of control. For the same compound, the T/C (dose: 40.0 mg/kg/injection, schedule: Q04DX003 (ip), vehicle: Klucel (hydroxypropylcellulose) (HPC)) was 100 % of control and the T/C [1] was 104 % of control.
For `O=NN(CCCl)C(=O)N[C@H]1CCCC[C@@H]1Cl`, the T/C (dose: 5.0 mg/kg/injection, schedule: Q04DX004 (ip), vehicle: Klucel (hydroxypropylcellulose) (HPC)) was 123 % of control, the T/C (dose: 5.0 mg/kg/injection, schedule: Q04DX004 (ip), vehicle: saline) was 117 % of control and the T/C (dose: 20.0 mg/kg/injection, schedule: Q04DX004 (ip), vehicle: Klucel (hydroxypropylcellulose) (HPC)) was 97 % of control.

— PubChem BioAssay AID190 (DTP/NCI, 2004)
